Patent publication US11167007B2, “FOXM1 modulators and uses thereof” (City of Hope, priority 2016, dated 2021)

Key:
[1] = target: T1, AR (Rattus norvegicus, UniProt P15207); assay: Androgen-responsive luciferase reporter assay in L6 skeletal muscle cells; type: cell-based; conditions: FIG. 2B
T1 construct: endogenous in cells; host or cells: L6 myoblasts
T1 sequence (P15207 1-902): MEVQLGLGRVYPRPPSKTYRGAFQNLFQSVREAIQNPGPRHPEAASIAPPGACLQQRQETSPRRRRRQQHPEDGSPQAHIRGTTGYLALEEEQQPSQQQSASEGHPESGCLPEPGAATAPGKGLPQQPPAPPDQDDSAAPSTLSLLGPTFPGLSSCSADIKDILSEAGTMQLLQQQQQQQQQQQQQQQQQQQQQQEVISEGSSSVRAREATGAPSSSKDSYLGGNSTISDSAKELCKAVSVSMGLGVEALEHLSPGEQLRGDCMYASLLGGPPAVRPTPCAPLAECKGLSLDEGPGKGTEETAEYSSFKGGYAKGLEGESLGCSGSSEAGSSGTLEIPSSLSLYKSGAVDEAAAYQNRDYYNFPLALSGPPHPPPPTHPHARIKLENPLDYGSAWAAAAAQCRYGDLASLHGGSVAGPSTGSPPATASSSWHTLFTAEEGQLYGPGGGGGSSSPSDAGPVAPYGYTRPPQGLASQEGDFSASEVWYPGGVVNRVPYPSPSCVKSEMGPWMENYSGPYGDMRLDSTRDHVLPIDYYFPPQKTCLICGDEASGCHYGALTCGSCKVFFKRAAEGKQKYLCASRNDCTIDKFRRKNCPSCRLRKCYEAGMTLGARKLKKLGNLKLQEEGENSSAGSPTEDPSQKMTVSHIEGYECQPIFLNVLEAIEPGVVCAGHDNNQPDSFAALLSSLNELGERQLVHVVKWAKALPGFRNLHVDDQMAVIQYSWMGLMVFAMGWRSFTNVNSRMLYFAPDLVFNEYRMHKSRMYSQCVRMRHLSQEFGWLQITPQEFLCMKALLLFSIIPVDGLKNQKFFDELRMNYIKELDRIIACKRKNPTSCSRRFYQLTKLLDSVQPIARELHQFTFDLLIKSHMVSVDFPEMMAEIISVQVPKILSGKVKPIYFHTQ
From the text: Luciferase Reporter Assay. Cells were transfected using Lipofectamine Plus (Invitrogen) with a normalization plasmid (pRL-SV40, Promega) and an androgen responsive plasmid (MMTV-luciferase or PSA-luciferase) as described in Jones et al, ACS Chem Biol, 3(7):412-8 (2008), and, where indicated, with an shRNA plasmid targeting FOXM1 (adapted for mouse FOXM1 sequence targeting) a scrambled control shRNA plasmid, or ARQ24 or ARQ65 plasmids. Christensen et al, PLoS One, 8(1):e54556 (2013). The following day, cells and drugs were distributed to 96-well plates. 24 hours later, luciferase activity was assessed by a dual luciferase assay kit (Promega) on the Tecan plate reader. Samples were run in quadruplicates and a Student's t test was performed to determine significance, where p<0.05 was considered significant.
The ability of thiostrepton to inhibit AR activity in additional neuronal cells, including ReNcell CX cells PC12 cells, and in rat L6 skeletal muscle cells was examined (FIG. 2B). Donato et al, BMC Neurosci, 8:36 (2007); Yaffe, Proc Natl Acad Sci USA, 61(2):477-83 (1968).

[2] = test system: AR activity in muscle or SV; assay: Weights of levator ani muscle and seminal vesicles at end of study; type: in vivo, rat; conditions: rats, compared to controls
Protocol: Animals and Drugs. This study was carried out in strict accordance with the recommendations in the Guide for the Care and Use of Laboratory Animals of the National Institutes of Health. All experiments were performed under the IUCAC approval of City of Hope. Animals were purchased from Jackson Laboratory (Bar Harbor, Main). For the pilot pharmacokinetic experiment, nine male Sprague Dawley rats (n=3) were administered 1, 10, or 100 mg/kg intraperitoneal injections thrice per week for four weeks. One hour following the final dose, blood and spinal fluid were collected and analyzed by mass spectrometry. For the efficacy experiment, rats were divided into 3 groups (n=7) as follows: intact, castrated, and thiostrepton. […] Following a treatment period of 7 days, rats were euthanized and organs harvested, weighed and processed for quantitative RT-PCR.
Androgens are known to control the growth and maintenance of the skeletal muscle and seminal vesicles. […] In order to investigate the impact of thiostrepton on these tissues, their weights at the end of the study were assessed. […] Because an equivalent androgen-dependent change in weight cannot be tested in motor neurons, the levels of tissue-selective androgen regulate genes, as a marker of AR activity, were assessed. […] RNA was isolated from spinal cord and LA muscle tissue and transcript levels were measured by RT-qPCR (FIG. 5F, FIG. 5H). […]

SMILES: C=C(NC(=O)C(=C)NC(=O)c1csc(C2=N[C@@H]3c4csc(n4)[C@H]4NC(=O)c5csc(n5)[C@H]([C@](C)(O)[C@@H](C)O)NC(=O)[C@H]5CSC(=N5)/C(=C/C)NC(=O)[C@H]([C@@H](C)O)NC(=O)c5csc(n5)[C@]3(CC2)NC(=O)[C@H](C)NC(=O)C(=C)NC(=O)[C@H](C)NC(=O)[C@H]([C@@H](C)CC)N[C@@H]2C=Cc3c([C@H](C)O)cc(nc3[C@H]2O)C(=O)O[C@@H]4C)n1)C(N)=O [thiostrepton]
- inhibition of AR activity (luciferase) [1]: not muscle cells
- levator ani (LA) muscle weight [2]: did not change
- seminal vesicles (SV) weight [2]: did not change
